{
  "source": "BindingDB's records for doi:10.1021/jm801507v",
  "about": "(AstraZeneca, 2009)",
  "key": {"[1]": {"target": "T1, Diacylglycerol O-acyltransferase 1 (Homo sapiens, UniProt O75907)", "T1 sequence (O75907 whole entry)": "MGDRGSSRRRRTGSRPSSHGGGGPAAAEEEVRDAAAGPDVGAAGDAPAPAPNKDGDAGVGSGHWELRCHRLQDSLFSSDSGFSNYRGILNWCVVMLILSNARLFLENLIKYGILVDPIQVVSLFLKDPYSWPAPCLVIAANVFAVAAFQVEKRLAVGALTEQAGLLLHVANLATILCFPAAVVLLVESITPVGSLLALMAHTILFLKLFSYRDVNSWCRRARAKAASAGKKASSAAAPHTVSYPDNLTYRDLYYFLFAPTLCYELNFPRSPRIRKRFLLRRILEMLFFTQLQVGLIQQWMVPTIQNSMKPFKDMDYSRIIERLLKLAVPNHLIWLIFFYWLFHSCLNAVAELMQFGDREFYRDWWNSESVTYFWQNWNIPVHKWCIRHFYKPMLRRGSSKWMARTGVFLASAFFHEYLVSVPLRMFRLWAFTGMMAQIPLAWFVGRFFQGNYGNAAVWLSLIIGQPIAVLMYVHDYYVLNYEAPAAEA", "assay": "DGAT Enzyme Inhibition Assay", "settings": "pH 7.4; 22 °C", "procedure": "The assay mixture contains test compound, membrane protein, and 1,2 dioleoyl-sn-glycerol in a 96-deep well plate. The reaction was started by adding substrate [14C]oleoyl coenzyme A and incubated. After the reaction was stopped, radioactive triolein product was separated into the organic heptane phase. DGAT activity was quantified by counting aliquots of the upper heptane layer by liquid scintillography."}, "[2]": {"target": "T2, Sterol O-acyltransferase 1 (Homo sapiens, UniProt P35610)", "T2 sequence (P35610 whole entry)": "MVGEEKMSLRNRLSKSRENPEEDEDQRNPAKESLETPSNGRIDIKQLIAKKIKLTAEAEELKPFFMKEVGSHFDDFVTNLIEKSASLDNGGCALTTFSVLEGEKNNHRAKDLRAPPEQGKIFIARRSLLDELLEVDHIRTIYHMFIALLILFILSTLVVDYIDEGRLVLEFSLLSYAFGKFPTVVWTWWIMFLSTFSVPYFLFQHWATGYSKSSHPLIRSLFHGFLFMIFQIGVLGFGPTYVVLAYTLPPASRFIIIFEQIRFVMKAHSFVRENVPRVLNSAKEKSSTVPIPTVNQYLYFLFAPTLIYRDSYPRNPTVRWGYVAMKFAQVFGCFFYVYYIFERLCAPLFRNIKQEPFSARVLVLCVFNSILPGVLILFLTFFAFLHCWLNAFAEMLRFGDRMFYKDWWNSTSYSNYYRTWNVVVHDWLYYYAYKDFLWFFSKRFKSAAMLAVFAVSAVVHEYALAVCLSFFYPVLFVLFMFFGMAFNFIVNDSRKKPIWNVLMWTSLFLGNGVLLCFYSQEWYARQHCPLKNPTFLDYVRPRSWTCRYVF", "assay": "ACAT-1 Enzyme Inhibition Assay", "settings": "pH 7.4; 37 °C", "procedure": "The reaction was started by adding substrate [14C]oleoyl coenzyme A and incubated. After the reaction was stopped, radioactive cholesteryl oleate product was separated into the organic heptane phase. ACAT-1 activity was quantified by counting aliquots of the upper heptane layer by liquid scintillography."}},
  "data": [
    {"smiles": "CC1(C)Oc2ncnc(N)c2N=C1c1ccc(C23CCCC(CC(=O)O)(CC2)CC3)cc1", "note": "[2-[5-(4-{4-amino-7,7-dimethyl-7H-pyrimido[4,5-b][1,4]oxazin-6-yl}phenyl)bicyclo[3.2.2]nonan-1-yl]acetic acid]", "values": [
      {"measurement": "IC50", "setting": "[1]", "value": 0.069, "unit": "µM"},
      {"measurement": "IC50", "setting": "[2]", "value": 28, "unit": "µM"}
    ]}
  ]
}
